Measurements reported in patent US20110045083A1, “USE LARCH WOOD FOR TREATING INFLAMMATION” (priority 2007, published 2011).
Where “and” joins values, the source holds several entries; their conditions need not be identical. Equal values may be shown once. Entries after “also recorded” stand apart in the source; their conditions may differ. Read-outs that look alike come from different tables or passages of the source.

Columns and labels:
COX-2 (purified PGHS-2) = biological target: T1, COX-2 (purified PGHS-2) (Ovis aries, UniProt P79208); test: COX-2 assay, purified enzyme, PGE2 EIA; assay type: biochemical, sheep; conditions: for inhibition at 50 µM: screening concentration 50 μM
T1 construct: purified PGHS-2 (COX-2) from sheep placental cotyledones; purchased Cayman Chemical Company, Ann Arbor, Mich., USA; host or cells: sheep placental cotyledons (tissue-purified)
T1 sequence (P79208 17-603): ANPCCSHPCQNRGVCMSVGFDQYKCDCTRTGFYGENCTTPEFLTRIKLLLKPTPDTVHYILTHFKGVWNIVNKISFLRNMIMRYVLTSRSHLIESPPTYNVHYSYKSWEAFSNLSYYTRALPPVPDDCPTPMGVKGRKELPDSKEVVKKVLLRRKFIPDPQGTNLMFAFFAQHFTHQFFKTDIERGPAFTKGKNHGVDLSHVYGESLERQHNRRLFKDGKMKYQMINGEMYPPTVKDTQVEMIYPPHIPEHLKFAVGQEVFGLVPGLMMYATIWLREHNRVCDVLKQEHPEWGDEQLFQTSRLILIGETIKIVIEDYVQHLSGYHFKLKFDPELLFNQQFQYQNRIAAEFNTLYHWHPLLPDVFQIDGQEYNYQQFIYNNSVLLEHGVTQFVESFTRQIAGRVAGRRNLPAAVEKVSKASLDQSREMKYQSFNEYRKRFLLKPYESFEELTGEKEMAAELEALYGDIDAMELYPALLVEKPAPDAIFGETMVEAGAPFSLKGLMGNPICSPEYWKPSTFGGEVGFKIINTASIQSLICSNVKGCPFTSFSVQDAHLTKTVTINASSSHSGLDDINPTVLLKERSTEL
Procedure: (§1) Principle: The purified enzymes COX-1 and COX-2 are incubated with a defined concentration of test sample and arachidonic acid. After stopping the enzymatic reaction by addition of formic acid and dilution, the produced PGE2 is quantified by means of a PGE2 EIA kit.
(§2) Sample preparation: The test samples (extracts and pure compounds) are dissolved in ethanol. Extracts are tested in concentrations of 20 μg/ml for screening. Pure compounds are tested in concentrations of 50 μM for screening.
(§3) Incubation procedure: The assays are performed in a microtiter scale with purified PGHS-1 (COX-1) from ram seminal vesicles and purified PGHS-2 (COX-2) from sheep placental cotyledones (both: Cayman Chemical Company, Ann Arbor, Mich., USA). The incubation mixture consists of 180 μl 0.1 M TRIS/HCl-buffer (pH 8.0) (Roth, Karlsruhe, Germany), 5 μM hematin, (porcine, ICN, Aurora, Ohio, USA), 18 mM epinephrine hydrogen tartrate (Fluka, Buchs, Switzerland), 0.2 U of enzyme preparation and 50 μM Na2EDTA (only COX-2 assay, Titriplex III, Merck, Darmstadt, Germany). 10 μl of each test solution are added and the mixture is preincubated for 5 min at room temperature. The reaction is started by adding 10 μl of 5 μM arachidonic acid (Cayman Chemical Company) in EtOH p.a. and the reaction mixture is incubated at 37° C. The reaction is terminated after 20 min by addition of 10 μl of 10% formic acid.
(§4) PGE2 EIA: The concentration of PGE2, the main arachidonic acid metabolite in this reaction, is determined by a competitive PGE2 EIA kit (Assay Designs Inc., Ann Arbor, Mich., USA). All samples are diluted in EIA buffer. The EIA is incubated for 2 hours at room temperature on an orbital shaker. After a washing step, 200 μl of substrate solution are added to each well, and the EIA is incubated for 1 hour at room temperature. After addition of 50 μl stop solution, the EIA is evaluated photometrically by an ELISA microplate reader.
(§5) Inhibition of COX refers to reduction of PGE2 formation in comparison to a blank run without inhibitor. Inhibition values are means of at least 2 experiments and each sample is tested in duplicate. […] IC50 values of active samples were determined by testing at least 3 concentrations in 3 different experiments, in duplicate each. IC50 was calculated by logarithmic regression after graphical representation.

COX-1 (purified PGHS-1) = biological target: T2, COX-1 (purified PGHS-1) (Ovis aries, UniProt P05979); test: COX-1 assay, purified enzyme, PGE2 EIA; assay type: biochemical, ram; conditions: for inhibition at 50 µM: screening concentration 50 μM
T2 construct: purified PGHS-1 (COX-1) from ram seminal vesicles; purchased Cayman Chemical Company, Ann Arbor, Mich., USA; host or cells: ram seminal vesicles (tissue-purified)
T2 sequence (P05979 25-600): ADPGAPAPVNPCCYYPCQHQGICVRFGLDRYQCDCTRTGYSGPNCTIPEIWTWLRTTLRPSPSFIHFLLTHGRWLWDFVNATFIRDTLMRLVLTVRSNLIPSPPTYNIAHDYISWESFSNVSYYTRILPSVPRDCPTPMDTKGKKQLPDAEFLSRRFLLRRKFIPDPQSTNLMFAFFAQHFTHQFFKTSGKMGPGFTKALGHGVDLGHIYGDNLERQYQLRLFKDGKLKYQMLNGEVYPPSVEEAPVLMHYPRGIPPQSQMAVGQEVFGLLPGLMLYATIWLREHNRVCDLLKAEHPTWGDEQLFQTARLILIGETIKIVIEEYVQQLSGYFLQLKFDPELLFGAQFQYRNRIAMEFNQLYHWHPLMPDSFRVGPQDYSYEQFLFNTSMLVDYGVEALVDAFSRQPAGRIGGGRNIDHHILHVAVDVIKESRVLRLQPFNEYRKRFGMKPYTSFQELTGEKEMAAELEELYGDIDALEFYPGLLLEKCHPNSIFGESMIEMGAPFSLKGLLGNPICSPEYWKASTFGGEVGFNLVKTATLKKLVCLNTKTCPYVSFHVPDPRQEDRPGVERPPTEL
Procedure: as §1, §2, §3, §4, §5

Row | SMILES | IC50 COX-2 (COX-2 (purified PGHS-2)) | inhibition at 50 µM (COX-2 (purified PGHS-2)) [%] | IC50 COX-1 (COX-1 (purified PGHS-1)) | inhibition at 50 µM (COX-1 (purified PGHS-1)) [%] | IC50 COX-2 (COX-2 (purified PGHS-2); listed as dehydroabietinol) | IC50 COX-1 (COX-1 (purified PGHS-1); listed as dehydroabietinol) | IC50 COX-2 (COX-2 (purified PGHS-2); listed as larixol) | IC50 COX-1 (COX-1 (purified PGHS-1); listed as larixol) | IC50 (COX-2 (purified PGHS-2); read-out: IC50 COX-2) | IC50 (COX-2 (purified PGHS-2); IC50 COX-2) [µM] | IC50 COX-1 (COX-1 (purified PGHS-1); listed as palustric acid)
1 | CC(C)c1ccc2c(c1)CCC1C(C)(C(=O)O)CCCC21C (stereo not drawn) [Dehydroabietic acid] | Inactive | -6 ± 9 | Inactive | 2.9 ± 7.8 | – | – | – | – | – | – | –
2 | CC(C)c1ccc2c(c1)CCC1C(C)(CO)CCCC21C (stereo not drawn) [Dehydroabietinol] | Inactive | 7.7 ± 8 | Inactive | -1.6 ± 4.6 | inactive | inactive | – | – | – | – | –
3 | C=C[C@@]1(C)CC[C@H]2C(=CC[C@@H]3[C@]2(C)CCC[C@@]3(C)C(=O)O)C1 [Isopimaric acid] | without inhibiting; also recorded: Inactive | 3.5 ± 6.2 | without inhibiting; also recorded: Inactive | 15.7 ± 7.1 | – | – | – | – | – | – | –
4 | C=CC(C)(O)CCC1C(=C)CC(O)C2C(C)(C)CCCC12C (stereo not drawn) [Larixol] | Inactive | 8.7 ± 3.8 | Inactive | 2.1 ± 4.7 | – | – | inactive | inactive | – | – | –
5 | C=CC(C)(O)CCC1C(=C)CC(OC(C)=O)C2C(C)(C)CCCC12C (stereo not drawn) [Larixyl acetate] | devoid of COX-2inhibitory activity | 38.5 ± 5.9 | Inactive | 0.2 ± 5.9 | – | – | – | – | 95 µM and 95.1 µM | – | –
6 | CC(C)C1=CC2=C(CC1)C1(C)CCCC(C)(C(=O)O)C1CC2 (stereo not drawn) [Palustric acid] | – | 49.5 ± 3.5 | Inactive | 13.5 ± 4.7 | – | – | – | – | – | 57.9 | without inhibiting
